Legend:
[1] = HEK293 cytotoxicity assay (Alamar Blue); assay type: cell-based; conditions: human, HEK293 cells, HEK293, 72 h
Experimental: The HEK 293 cell line was obtained from the European Collection of Authenticated Cell Cultures (ECACC, cat. # 85120602, Salisbury, UK). The cells were grown in a monolayer culture in Dulbecco’s Modified Eagle’s Medium (DMEM) (PanEco, Moscow, Russia), supplemented with 2 mM L-glutamine, 1% of a penicillin/streptomycin solution (Capricorn Scientific, Ebsdorfergrund, Germany), and 10% of heat inactivated fetal bovine serum (HyClone, Cytiva, Marlborough, MA, USA) in a humidified atmosphere containing 5% of CO2 at 37 °C (Binder, Germany). For the assay, HEK 293 cells were seeded in a 96-well plate (Corning, NY, USA) in 100 μL of the complete culture medium, at a final density of 2 × 10^3 cells/well, and were cultured for 24 h for proper attachment. Subsequently, the medium was removed, and the cells were exposed to a tested inhibitor at different concentrations for 72 h in 100 μL of the fresh complete culture medium. The sensitivity of the cells to the compounds was detected using the vital dye Alamar Blue (Invitrogen, San Diego, CA, USA). The Alamar Blue assay was performed according to the procedure described by O’Brien et al.. After incubation with the tested bCSE inhibitors, 10 μL of the Alamar Blue reagent was added into each well, the cell culture plates were returned to the humidified incubator, and the fluorescence was read after 3 h. The plates were exposed to an excitation light of 545 nm wavelength, and emission at 600 nm was measured on the CLARIOstar Plus (BMG LABTECH GmbH, Ortenberg, Germany). To determine half-maximal cytotoxic concentration (CC50), a four-parameter sigmoidal curve model (GraphPad Prism 8 software) was fitted to the measurement data.

[2] = tested on: A. baumannii GIMC5509:ABT-52Ts19; experiment: MIC of antibiotics alone and with potentiators, clinical isolate
Experimental: (§1) Overnight (ON) culture of a specific strain was grown in the liquid Luria–Bertani nutrient medium (LB broth, BD Difco) for 18 h at 37 °C, with agitation at 180 rpm using an Innova 44R orbital shaker (Eppendorf, Hamburg, Germany). After a certain period, 50 µL of the ON culture was transferred into 5 mL of the LB medium and grown for 3 h at 37 °C with agitation. Growth in the liquid medium was assessed by means of turbidity of the suspension, measured using a Densi-La-Meter II densitometer (Erba Lachema s.r.o., Brno, Czech Republic). Then, the bacterial suspension was diluted to the concentration 10^6 cells/mL with sterile LB and used as a seed culture [38, 39].
(§2) For the assessment of MICs, 96-well microtiter plates were utilized at 200 µL of a medium per well. Each well was filled with 100 µL of the seed culture. After that, 10 µL of a solution of each tested synthetic compound (potentiators) was added into each experimental well. Finally, 90 µL of twofold serial dilutions of an antibiotic in a sterile LB was added into individual wells.
(§3) As a positive control, we set up wells with 100 µL of the bacterial culture and 100 µL of the sterile LB medium. […] Negative-control wells contained 200 µL of the sterile medium. The plates were incubated in a thermostat for 18–20 h at 37 °C. The bacterial growth was assessed as optical density at 600 nm on a CLARIOstar microplate reader (BMG LABTECH GmbH, Ortenberg, Germany)).

physchem = assay type: physicochemical; conditions: 25 °C, pH 7.4, aqueous buffer, kinetic from dmso stock, Solubility
Experimental: A stock solution of a compound (10 mM in DMSO, 10 μL) was added to 990 μL of 100 mM sodium phosphate buffer (pH 7.4) and incubated at 25 °C for 2 h with constant shaking. The suspension was filtered through the PVDF membrane filter (Merck Millipore, Burlington, MA, USA). To 320 µL of the filtrate, 80 µL of acetonitrile was added and mixed. The mixture was transferred to a vial and analyzed by ultra-high-performance liquid chromatography (UHPLC) with UV detection. Concentrations were calculated from a 5-point calibration curve. The calibration range was 1 to 100 μM. The controls were diclofenac and nicardipine. All compounds were tested in triplicate.

[3] = LogD7.4, miniaturized shake flask method; assay type: physicochemical; conditions: 1-octanol / 100 mM sodium phosphate buffer pH 7.4
Experimental: Coefficients of distribution between 1-octanol and 100 mM sodium phosphate buffer (pH 7.4) were determined by the miniaturized shake flask method. Namely, 5 μL of a 10 mM compound’s solution in DMSO was dissolved in 245 μL of 1-octanol saturated with phosphate buffer. Next, 500 μL of phosphate buffer saturated with 1-octanol was added, followed by mixing for 3 h. […] After that, 50 μL of the octanol phase (top layer) was aspirated and diluted with 500 μL of 1-octanol saturated with phosphate buffer. Then, the remaining octanol phase was removed; 50 μL of the buffer layer was aspirated and diluted with 500 μL of phosphate buffer saturated with 1-octanol. Both the octanol and phosphate buffer samples were analyzed by LC–MS/MS. The distribution coefficient was determined according to the following equation: logD7.4 = log10 (peak area for octanol sample/peak area for buffer sample). […] All compounds were tested in triplicate.

[4] = tested on: P. aeruginosa GIMC5016:PA1840/36/2015; experiment: MIC of antibiotics alone and with potentiators, clinical isolate
Experimental: as §1, §2, §3

[5] = A. baumannii GIMC5509:ABT-52Ts19, potentiator 50 µg/mL
[6] = P. aeruginosa GIMC5016:PA1840/36/2015, potentiator 50 µg/mL

O=C(O)c1cc2ccccc2n1Cc1cccc2ccccc12 [Compound 2a]
CC50 at 72 h [1]: 291 ± 8.11 µM
MIC of Tacillin in combination with potentiator ([2]; A. baumannii GIMC5509:ABT-52Ts19, piperacillin + tazobactam, potentiator 50 µg/mL): 64 µg/mL
MIC of Cefepim in combination with potentiator [2, 5]: 256 µg/mL
MIC of Meropenem in combination with potentiator [2, 5]: 32 µg/mL
solubility at 2 h (physchem): > 100 µM
Measured logD7.4 ([3]; listed as 2а): 2.14±0.14
Measured logD7.4 ([3]; listed as lead compound): 1–3
MIC of Tacillin in combination with potentiator ([4]; P. aeruginosa GIMC5016:PA1840/36/2015, piperacillin + tazobactam, potentiator 50 µg/mL): 32 µg/mL
MIC of Cefepim in combination with potentiator [4, 6]: 32 µg/mL
MIC of Gentamicin in combination with potentiator [4, 6]: > 512 µg/mL
MIC of Meropenem in combination with potentiator [4, 6]: 8 µg/mL

— paper PMC10671052, “Naphthyl-Substituted Indole and Pyrrole Carboxylic Acids as Effective Antibiotic Potentiators—Inhibitors of Bacterial Cystathionine γ-Lyase” (International Journal of Molecular Sciences, 2023)
